Measurements reported in patent publication US20220267231A1, “FERTILIZER CONTAINING A SEED GRIND AND A METHOD OF USING THE FERTILIZER TO ENHANCE PLANT GROWTH” (Innovations for World Nutrition, LLC, priority 2020, published 2022).

Experiments:
Format in all cases: in vivo
wheat = assay: Early growth of wheat in transparent cups, dry weight of seedlings; conditions: for Dry Weight of Roots Only / Dry Weight of Total Plant + Roots: 28 days after planting, .P buried at planting, .L buried 11 days after planting; for % Difference for Plant + Roots / % Difference for Roots Only: 28 days, compared to the baseline with the highest total weight
Description: Each cup was given 0.2 g urea in 25 mL of solution. Four wheat seeds were planted in each cup 1 inch deep and 3 inches apart. The cups holding the soil were transparent plastic and were placed inside opaque cups. The seeds were planted in the soil against the inside surface of the transparent cups and the outer opaque cups protected the roots from light during growth. By removing the inner cups, the roots were viewed and pictures taken without disturbing the plants as they were developing and therefore a view of the early growth of the roots was possible. […] After planting the seeds, the mixtures in Table 12 were buried 1.27 cm (½ inch) deep in the center of each cup. Some of these were buried on the same day as the seeds were planted (noted as .P in Table 14), and others were buried 11 days after the seed was planted (noted as .L in Table 14). If more than two seeds sprouted in a cup, the seedlings were removed to allow only two to remain. One of each formulation was tested. The baseline was tested in duplicate. Twenty-eight days after planting the wheat, the plants with roots were gently removed from the cups, rinsed, dried, and weighed.

corn = assay: Early growth of corn in transparent cups, dry weight of seedlings; conditions: for Dry Weight of Roots / Total Dry Weight of Plant + Roots / % Difference from Baseline for Plant + Roots / % Difference from Baseline for Roots Only: corn; for Dry Weight of Roots / Total Dry Weight of Plant + Roots: 24 days after planting, .P buried at planting, .L buried 11 days after planting; for % Difference from Baseline for Plant + Roots / % Difference from Baseline for Roots Only: 24 days, compared to the baseline with the highest total weight
Description: Each cup was given 0.2 g urea in 25 mL of solution. Two corn seeds were planted in each cup 1 inch deep and 3 inches apart. The cups holding the soil were transparent plastic and were placed inside opaque cups. The seeds were planted in the soil against the inside surface of the transparent cups and the outer opaque cups protected the roots from light during growth. By removing the inner cups, the roots were viewed and pictures taken without disturbing the plants as they were developing and therefore a view of the early growth of the roots was possible. […] After planting the seeds, the mixtures in Table 12 were buried 1.27 cm (½ inch) deep in the center of each cup. Some of these were buried on the same day as the seed was planted (noted as .P in Table 13), and others were buried 11 days after the seed was planted (noted as .L in Table 13). […] If two seeds sprouted in a cup, the second was immediately removed. One cup for each formulation was tested. The baseline was tested in duplicate. Twenty-four days after planting the corn, the plants with roots were gently removed from the cups, rinsed, dried, and weighed. The % differences shown in Table 13 are compared to the baseline with the highest weight of total weight for the plant and roots.

cotton = assay: Early growth of cotton in transparent cups, dry weight of plants and roots; conditions: cotton cup test
Description: Each cup was given 0.2 g urea in 25 mL of solution. […] The cups holding the soil were transparent plastic and were placed inside opaque cups. The seeds were planted in the soil against the inside surface of the transparent cups and the outer opaque cups protected the roots from light during growth. By removing the inner cups, the roots were viewed and pictures taken without disturbing the plants as they were developing and therefore a view of the early growth of the roots was possible. […] If two seeds sprouted in a cup, the second was immediately removed.

SMILES: O=C([O-])O.[K+] [A.P, potassium bicarbonate]
- Dry Weight of Roots Only (wheat): 0.0669 g
- Dry Weight of Total Plant + Roots (wheat): 0.2337 g
- Dry Weight of Roots Only (wheat; listed as A.L): 0.1166 g
- Dry Weight of Total Plant + Roots (wheat; listed as A.L): 0.2670 g
- % Difference for Plant + Roots (wheat): −8%
- % Difference for Roots Only (wheat): −46%
- % Difference for Plant + Roots (wheat; listed as A.L): 5%
- % Difference for Roots Only (wheat; listed as A.L): −6%
- Dry Weight of Roots (corn): 0.2313 g
- Total Dry Weight of Plant + Roots (corn): 0.5292 g
- Dry Weight of Roots (corn; listed as A.L): 0.4121 g
- Total Dry Weight of Plant + Roots (corn; listed as A.L): 0.7818 g
- % Difference from Baseline for Plant + Roots (corn): −20%
- % Difference from Baseline for Roots Only (corn): −29%
- % Difference from Baseline for Plant + Roots (corn; listed as A.L): 18%
- % Difference from Baseline for Roots Only (corn; listed as A.L): 26%

SMILES: O=C([O-])O.[K+] [H.P, potassium bicarbonate]
- Dry Weight of Roots Only (wheat): 0.1334 g
- Dry Weight of Total Plant + Roots (wheat): 0.3030 g
- Dry Weight of Roots Only (wheat; listed as H.L): 0.1286 g
- Dry Weight of Total Plant + Roots (wheat; listed as H.L): 0.2881 g
- % Difference for Plant + Roots (wheat): 19%
- % Difference for Roots Only (wheat): 7%
- % Difference for Plant + Roots (wheat; listed as H.L): 13%
- % Difference for Roots Only (wheat; listed as H.L): 3%
- Dry Weight of Roots (corn): 0.2744 g
- Total Dry Weight of Plant + Roots (corn): 0.5252 g
- Dry Weight of Roots (corn; listed as H.L): 0.2538 g
- Total Dry Weight of Plant + Roots (corn; listed as H.L): 0.5597 g
- % Difference from Baseline for Plant + Roots (corn): −20%
- % Difference from Baseline for Roots Only (corn): −16%
- % Difference from Baseline for Plant + Roots (corn; listed as H.L): −15%
- % Difference from Baseline for Roots Only (corn; listed as H.L): −22%

SMILES: O=C([O-])O.[K+] [KBC, potassium bicarbonate]
- Early growth of cotton plants and roots (in words) (cotton): produced more benefit with early growth of cotton than sodium bicarbonate
- Benefit to early growth of corn (in words) (corn; corn cup test): did not provide a benefit
